According to patent publication US9302999B2, “Substituted triazoles as herbicides” (E. I. DU PONT DE NEMOURS AND COMPANY, priority 2012, dated 2016):

How the values were obtained:
Format in all cases: in vivo
[1] = system: barnyardgrass (Echinochloa crus-galli); test: Test A pre-/postemergence: barnyardgrass
How it was run: (§1)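 Injury was scored visually on a 0 (no effect) to 100 (complete control) scale versus untreated controls roughly ten days after treatment in the greenhouse. Compounds, formulated in surfactant-containing non-phytotoxic solvent, went on as soil-directed preemergence spray or postemergence to one- to two-leaf plants 2–10 cm tall.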

[2] = system: crabgrass, large (large crabgrass, Digitaria sanguinalis); test: Test A pre-/postemergence: crabgrass, large
How it was run: as §1

[3] = system: foxtail, giant (giant foxtail, Setaria faberii); test: Test A pre-/postemergence: foxtail, giant
How it was run: as §1

[4] = system: morningglory (Ipomoea spp.); test: Test A pre-/postemergence: morningglory
How it was run: as §1

[5] = system: pigweed (Amaranthus retroflexus); test: Test A pre-/postemergence: pigweed
How it was run: as §1

[6] = system: velvetleaf (Abutilon theophrasti); test: Test A pre-/postemergence: velvetleaf
How it was run: as §1

[7] = system: wheat (Triticum aestivum); test: Test A pre-/postemergence: wheat
How it was run: as §1

[8] = system: corn (Zea mays); test: Test A pre-/postemergence: corn
How it was run: as §1

[9] = system: rice (Oryza sativa); test: Test C flooded paddy test: rice; details: scale 0 to 100 (0 no effect, 100 complete control)
How it was run: (§2)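 Plants were grown to the 2-leaf stage, pots flooded to 3 cm above soil, and test compounds applied directly to the paddy water, with that depth held throughout. After 13 to 15 days in a greenhouse, injury was visually rated against controls on a 0 (no effect) to 100 (complete control) scale.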

[10] = system: sedge, umbrella (small-flower umbrella sedge, Cyperus difformis); test: Test C flooded paddy test: sedge, umbrella; details: scale 0 to 100 (0 no effect, 100 complete control)
How it was run: as §2

[11] = system: ducksalad (Heteranthera limosa); test: Test C flooded paddy test: ducksalad; details: scale 0 to 100 (0 no effect, 100 complete control)
How it was run: as §2

[12] = system: barnyardgrass (Echinochloa crus-galli); test: Test C flooded paddy test: barnyardgrass; details: scale 0 to 100 (0 no effect, 100 complete control)
How it was run: as §2

[13] = Postemergence, 125 g ai/ha, 0 to 100 scale, 0 is no effect, 100 is complete control
[14] = Postemergence, 500 g ai/ha, visual rating on 0 to 100 scale (0 no effect, 100 complete control), approximately ten days
[15] = Preemergence, 125 g ai/ha, 0 to 100 scale (0 no effect, 100 complete control)
[16] = Preemergence, 500 g ai/ha, 0 to 100 scale, 0 is no effect, 100 is complete control
[17] = Flood (flooded paddy test), 125 g ai/ha, visual rating after 13 to 15 days
[18] = Flood (flooded paddy test), 250 g ai/ha, visual rating after 13 to 15 days
[19] = Postemergence, 1000 g ai/ha, visual rating on 0 to 100 scale (0 no effect, 100 complete control), approximately ten days
[20] = Preemergence, 1000 g ai/ha, 0 to 100 scale, 0 is no effect, 100 is complete control

Cc1nn(-c2ccc(C(F)(F)F)cc2)nc1Sc1cccc(C(F)(F)F)c1 [Compound 88]
Barnyardgrass plant response rating [1, 13]: 10
Barnyardgrass plant response rating [1, 14]: 20
Plant response rating, Barnyardgrass [1, 15]: 0
Plant response rating, Barnyardgrass [1, 16]: 10
Crabgrass, Large plant response rating [2, 13]: 30
Crabgrass, Large plant response rating [2, 14]: 80
Plant response rating, Crabgrass, Large [2, 15]: 0
Plant response rating, Crabgrass, Large [2, 16]: 50
Foxtail, Giant plant response rating [3, 13]: 10
Foxtail, Giant plant response rating [3, 14]: 40
Plant response rating, Foxtail, Giant [3, 15]: 0
Plant response rating, Foxtail, Giant [3, 16]: 40
Morningglory plant response rating [4, 13]: 10
Morningglory plant response rating [4, 14]: 50
Plant response rating, Morningglory [4, 15]: 0
Plant response rating, Morningglory [4, 16]: 0
Pigweed plant response rating [5, 13]: 80
Pigweed plant response rating [5, 14]: 100
Plant response rating, Pigweed [5, 15]: 0
Plant response rating, Pigweed [5, 16]: 50
Velvetleaf plant response rating [6, 13]: 10
Velvetleaf plant response rating [6, 14]: 80
Plant response rating, Velvetleaf [6, 15]: 0
Plant response rating, Velvetleaf [6, 16]: 0
Wheat plant response rating [7, 13]: 0
Wheat plant response rating [7, 14]: 10
Plant response rating, Wheat [7, 15]: 0
Plant response rating, Wheat [7, 16]: 0
Corn plant response rating [8, 13]: 0
Corn plant response rating [8, 14]: 10
Plant response rating, Corn [8, 15]: 0
Plant response rating, Corn [8, 16]: 0
Plant response rating, Rice [9, 17]: 0
Plant response rating, Rice [9, 18]: 0
Plant response rating, Rice ([9]; Flood, 31 g ai/ha): 0
Plant response rating, Rice ([9]; Flood, 62 g ai/ha): 0
Plant response rating, Sedge, Umbrella [10, 17]: 0
Plant response rating, Sedge, Umbrella [10, 18]: 0
Plant response rating, Sedge, Umbrella ([10]; Flood, 31 g ai/ha): 0
Plant response rating, Sedge, Umbrella ([10]; Flood, 62 g ai/ha): 0
Plant response rating, Ducksalad [11, 17]: 0
Plant response rating, Ducksalad [11, 18]: 0
Plant response rating, Ducksalad ([11]; Flood, 31 g ai/ha): 0
Plant response rating, Ducksalad ([11]; Flood, 62 g ai/ha): 0
Plant response rating, Barnyardgrass [12, 17]: 0
Plant response rating, Barnyardgrass [12, 18]: 0
Plant response rating, Barnyardgrass ([12]; Flood, 31 g ai/ha): 0
Plant response rating, Barnyardgrass ([12]; Flood, 62 g ai/ha): 0

Cc1nn(-c2ccc(F)cc2)nc1Cn1cnc(C(F)(F)F)n1 [Compound 94]
Barnyardgrass plant response rating [1, 19]: 40
Barnyardgrass plant response rating [1, 20]: 70
Crabgrass, Large plant response rating [2, 19]: 80
Crabgrass, Large plant response rating [2, 20]: 100
Foxtail, Giant plant response rating [3, 19]: 70
Foxtail, Giant plant response rating [3, 20]: 100
Morningglory plant response rating [4, 19]: 100
Morningglory plant response rating [4, 20]: 60
Pigweed plant response rating [5, 19]: 100
Pigweed plant response rating [5, 20]: 100
Velvetleaf plant response rating [6, 19]: 80
Velvetleaf plant response rating [6, 20]: 20
Wheat plant response rating [7, 19]: 30
Wheat plant response rating [7, 20]: 0
Corn plant response rating [8, 19]: 40
Corn plant response rating [8, 20]: 0
Plant response rating, Rice [9, 17]: 0
Plant response rating, Rice [9, 18]: 0
Plant response rating, Rice ([9]; Flood, 31 g ai/ha): 0
Plant response rating, Rice ([9]; Flood, 62 g ai/ha): 0
Plant response rating, Sedge, Umbrella [10, 17]: 60
Plant response rating, Sedge, Umbrella [10, 18]: 75
Plant response rating, Sedge, Umbrella ([10]; Flood, 31 g ai/ha): 0
Plant response rating, Sedge, Umbrella ([10]; Flood, 62 g ai/ha): 50
Plant response rating, Ducksalad [11, 17]: 40
Plant response rating, Ducksalad [11, 18]: 60
Plant response rating, Ducksalad ([11]; Flood, 31 g ai/ha): 0
Plant response rating, Ducksalad ([11]; Flood, 62 g ai/ha): 0
Plant response rating, Barnyardgrass [12, 17]: 0
Plant response rating, Barnyardgrass [12, 18]: 0
Plant response rating, Barnyardgrass ([12]; Flood, 31 g ai/ha): 0
Plant response rating, Barnyardgrass ([12]; Flood, 62 g ai/ha): 0

Cc1nn(-c2ccc(F)cc2)nc1Cn1ccc(C(F)(F)F)n1 [Compound 95]
Barnyardgrass plant response rating [1, 19]: 60
Barnyardgrass plant response rating [1, 20]: 50
Crabgrass, Large plant response rating [2, 19]: 80
Crabgrass, Large plant response rating [2, 20]: 100
Foxtail, Giant plant response rating [3, 19]: 60
Foxtail, Giant plant response rating [3, 20]: 100
Morningglory plant response rating [4, 19]: 60
Morningglory plant response rating [4, 20]: 0
Pigweed plant response rating [5, 19]: 100
Pigweed plant response rating [5, 20]: 90
Velvetleaf plant response rating [6, 19]: 70
Velvetleaf plant response rating [6, 20]: 40
Wheat plant response rating [7, 19]: 0
Wheat plant response rating [7, 20]: 0
Corn plant response rating [8, 19]: 30
Corn plant response rating [8, 20]: 10
Plant response rating, Rice [9, 18]: 0
Plant response rating, Rice ([9]; Flood, 62 g ai/ha): 0
Plant response rating, Sedge, Umbrella [10, 18]: 0
Plant response rating, Sedge, Umbrella ([10]; Flood, 62 g ai/ha): 0
Plant response rating, Ducksalad [11, 18]: 0
Plant response rating, Ducksalad ([11]; Flood, 62 g ai/ha): 0
Plant response rating, Barnyardgrass [12, 18]: 0
Plant response rating, Barnyardgrass ([12]; Flood, 62 g ai/ha): 0

Cc1nn(-c2ccc(C(F)(F)F)cc2)nc1Cn1cnc(C(F)(F)F)c1 [Compound 96]
Barnyardgrass plant response rating [1, 19]: 40
Barnyardgrass plant response rating [1, 20]: 70
Crabgrass, Large plant response rating [2, 19]: 70
Crabgrass, Large plant response rating [2, 20]: 100
Foxtail, Giant plant response rating [3, 19]: 60
Foxtail, Giant plant response rating [3, 20]: 90
Morningglory plant response rating [4, 19]: 80
Morningglory plant response rating [4, 20]: 40
Pigweed plant response rating [5, 19]: 90
Pigweed plant response rating [5, 20]: 100
Velvetleaf plant response rating [6, 19]: 70
Velvetleaf plant response rating [6, 20]: 0
Wheat plant response rating [7, 19]: 30
Wheat plant response rating [7, 20]: 0
Corn plant response rating [8, 19]: 30
Corn plant response rating [8, 20]: 0
Plant response rating, Rice [9, 18]: 0
Plant response rating, Rice ([9]; Flood, 62 g ai/ha): 0
Plant response rating, Sedge, Umbrella [10, 18]: 80
Plant response rating, Sedge, Umbrella ([10]; Flood, 62 g ai/ha): 75
Plant response rating, Ducksalad [11, 18]: 50
Plant response rating, Ducksalad ([11]; Flood, 62 g ai/ha): 40
Plant response rating, Barnyardgrass [12, 18]: 10
Plant response rating, Barnyardgrass ([12]; Flood, 62 g ai/ha): 10
